Consider eleven molecules from ChEMBL document CHEMBL3991601, “The target landscape of clinical kinase drugs” (Science, 2017).

By Kd is commonly meant the concentration at which binding is half-saturated.

The target of experiment [1] is Ribosomal protein S6 kinase alpha-4 (Homo sapiens, UniProt O75676).
For experiment [2], the target named is T1, Bifunctional phosphoribosylaminoimidazole carboxylase/phosphoribosylaminoimidazole succinocarboxamide synthetase (Homo sapiens, UniProt P22234).
T1 sequence (P22234 whole entry): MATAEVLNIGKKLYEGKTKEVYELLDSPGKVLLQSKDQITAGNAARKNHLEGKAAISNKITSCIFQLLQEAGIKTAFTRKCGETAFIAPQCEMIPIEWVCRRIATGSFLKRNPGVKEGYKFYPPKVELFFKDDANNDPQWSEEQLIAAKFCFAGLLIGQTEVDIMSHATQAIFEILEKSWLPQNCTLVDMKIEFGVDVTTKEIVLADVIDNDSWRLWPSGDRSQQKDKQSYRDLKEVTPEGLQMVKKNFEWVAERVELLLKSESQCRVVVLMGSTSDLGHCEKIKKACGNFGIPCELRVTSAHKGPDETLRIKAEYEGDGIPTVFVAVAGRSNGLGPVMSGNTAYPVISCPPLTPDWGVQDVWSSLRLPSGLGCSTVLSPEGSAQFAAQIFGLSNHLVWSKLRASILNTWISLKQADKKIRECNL

In experiment [3] the target is Bone morphogenetic protein receptor type-1B (Homo sapiens, UniProt O00238).
Experiment [4] addresses T2, Ferrochelatase, mitochondrial (Homo sapiens, UniProt P22830).
T2 sequence (P22830 whole entry): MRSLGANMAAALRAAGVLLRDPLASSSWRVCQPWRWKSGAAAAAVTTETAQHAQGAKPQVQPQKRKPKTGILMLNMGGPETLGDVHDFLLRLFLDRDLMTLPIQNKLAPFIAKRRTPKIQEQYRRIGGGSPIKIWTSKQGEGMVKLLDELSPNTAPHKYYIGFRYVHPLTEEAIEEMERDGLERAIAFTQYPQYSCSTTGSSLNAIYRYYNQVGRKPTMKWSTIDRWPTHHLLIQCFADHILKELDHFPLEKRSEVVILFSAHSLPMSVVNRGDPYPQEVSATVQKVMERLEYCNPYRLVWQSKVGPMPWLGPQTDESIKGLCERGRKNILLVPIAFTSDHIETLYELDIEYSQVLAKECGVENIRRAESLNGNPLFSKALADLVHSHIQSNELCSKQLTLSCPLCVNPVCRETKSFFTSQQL

Experiment [5] has as its target Cyclin-dependent kinase 5 (Homo sapiens, UniProt Q00535).
For experiment [6], the target named is Epithelial discoidin domain-containing receptor 1 (Homo sapiens, UniProt Q08345).
The target of experiment [7] is Proto-oncogene tyrosine-protein kinase receptor Ret (Homo sapiens, UniProt P07949).
Experiment [8] addresses Serine/threonine-protein kinase N1 (Homo sapiens, UniProt Q16512).
Experiment [9] addresses Tyrosine-protein kinase Fer (Homo sapiens, UniProt P16591).
Another experiment concerns the target Insulin receptor (Homo sapiens, UniProt P06213).
The target of a further experiment is T3, ADP/ATP translocase 2 (Homo sapiens, UniProt P05141).
T3 sequence (P05141 whole entry): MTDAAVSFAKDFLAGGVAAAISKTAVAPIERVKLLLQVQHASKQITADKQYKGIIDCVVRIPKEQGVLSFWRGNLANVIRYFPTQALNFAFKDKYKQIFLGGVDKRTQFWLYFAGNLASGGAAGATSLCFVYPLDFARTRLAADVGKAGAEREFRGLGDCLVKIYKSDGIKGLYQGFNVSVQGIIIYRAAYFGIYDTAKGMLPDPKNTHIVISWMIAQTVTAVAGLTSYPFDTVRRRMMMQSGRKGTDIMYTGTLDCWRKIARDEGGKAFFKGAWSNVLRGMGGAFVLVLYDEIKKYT

The target of experiment [10] is T4, ATP-dependent RNA helicase DHX30 (Homo sapiens, UniProt Q7L2E3).
T4 sequence (Q7L2E3 whole entry): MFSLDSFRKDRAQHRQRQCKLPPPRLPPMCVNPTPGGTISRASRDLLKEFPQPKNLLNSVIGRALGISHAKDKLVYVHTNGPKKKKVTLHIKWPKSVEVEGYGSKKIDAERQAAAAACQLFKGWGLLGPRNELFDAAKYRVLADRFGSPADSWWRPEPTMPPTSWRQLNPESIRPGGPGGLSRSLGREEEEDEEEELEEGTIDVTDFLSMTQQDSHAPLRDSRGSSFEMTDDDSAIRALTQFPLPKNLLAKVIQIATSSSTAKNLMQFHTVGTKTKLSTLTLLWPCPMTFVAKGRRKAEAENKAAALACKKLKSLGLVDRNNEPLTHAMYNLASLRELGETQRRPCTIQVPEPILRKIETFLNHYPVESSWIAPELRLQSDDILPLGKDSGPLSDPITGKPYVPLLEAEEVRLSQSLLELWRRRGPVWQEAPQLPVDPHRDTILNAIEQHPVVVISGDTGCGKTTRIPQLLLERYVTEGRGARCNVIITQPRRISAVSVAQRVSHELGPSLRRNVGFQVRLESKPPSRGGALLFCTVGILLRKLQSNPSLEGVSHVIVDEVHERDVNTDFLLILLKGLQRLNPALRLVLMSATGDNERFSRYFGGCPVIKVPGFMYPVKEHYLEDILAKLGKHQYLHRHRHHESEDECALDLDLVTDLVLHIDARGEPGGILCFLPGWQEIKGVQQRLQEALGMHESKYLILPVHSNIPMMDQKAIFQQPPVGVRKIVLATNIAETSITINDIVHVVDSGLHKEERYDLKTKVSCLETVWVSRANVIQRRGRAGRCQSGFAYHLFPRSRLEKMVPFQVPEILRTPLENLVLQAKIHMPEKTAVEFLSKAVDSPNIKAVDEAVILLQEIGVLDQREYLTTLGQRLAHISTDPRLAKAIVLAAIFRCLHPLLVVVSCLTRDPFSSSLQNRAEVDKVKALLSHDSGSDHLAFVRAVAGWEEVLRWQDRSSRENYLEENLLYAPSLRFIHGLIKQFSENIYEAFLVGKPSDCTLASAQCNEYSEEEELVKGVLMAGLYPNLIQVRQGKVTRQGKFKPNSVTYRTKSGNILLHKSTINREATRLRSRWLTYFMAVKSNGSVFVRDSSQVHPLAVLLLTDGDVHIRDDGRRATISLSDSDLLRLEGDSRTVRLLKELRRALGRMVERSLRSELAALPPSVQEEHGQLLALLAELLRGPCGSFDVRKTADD

Each structure is given as a SMILES string. Activity calls are given as the source filed them. For most assays here, no stated cut-off is given here; in the data, actives have a measured Kd and inactives only a lower limit.

Sequence of Ribosomal protein S6 kinase alpha-4 (O75676 whole entry): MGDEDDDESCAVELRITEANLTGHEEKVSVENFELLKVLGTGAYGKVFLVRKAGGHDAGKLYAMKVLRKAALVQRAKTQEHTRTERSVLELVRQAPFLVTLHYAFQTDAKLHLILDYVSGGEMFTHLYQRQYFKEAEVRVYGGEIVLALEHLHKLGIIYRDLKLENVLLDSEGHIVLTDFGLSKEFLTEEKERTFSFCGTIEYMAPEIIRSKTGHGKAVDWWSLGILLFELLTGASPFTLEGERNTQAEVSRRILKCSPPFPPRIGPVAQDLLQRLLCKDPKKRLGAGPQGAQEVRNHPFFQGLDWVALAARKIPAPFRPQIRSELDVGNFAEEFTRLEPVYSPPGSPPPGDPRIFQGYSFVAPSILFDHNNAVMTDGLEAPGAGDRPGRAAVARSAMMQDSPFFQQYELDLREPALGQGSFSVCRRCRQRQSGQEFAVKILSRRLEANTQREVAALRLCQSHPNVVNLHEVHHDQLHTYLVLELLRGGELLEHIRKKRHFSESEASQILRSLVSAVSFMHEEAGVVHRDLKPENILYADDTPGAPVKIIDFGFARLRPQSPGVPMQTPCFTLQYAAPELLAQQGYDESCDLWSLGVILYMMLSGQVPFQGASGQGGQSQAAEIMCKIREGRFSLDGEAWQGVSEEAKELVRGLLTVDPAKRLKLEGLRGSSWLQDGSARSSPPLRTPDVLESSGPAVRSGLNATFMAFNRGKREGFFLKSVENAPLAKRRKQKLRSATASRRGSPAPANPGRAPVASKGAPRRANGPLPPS
Sequence of Tyrosine-protein kinase Fer (P16591 whole entry): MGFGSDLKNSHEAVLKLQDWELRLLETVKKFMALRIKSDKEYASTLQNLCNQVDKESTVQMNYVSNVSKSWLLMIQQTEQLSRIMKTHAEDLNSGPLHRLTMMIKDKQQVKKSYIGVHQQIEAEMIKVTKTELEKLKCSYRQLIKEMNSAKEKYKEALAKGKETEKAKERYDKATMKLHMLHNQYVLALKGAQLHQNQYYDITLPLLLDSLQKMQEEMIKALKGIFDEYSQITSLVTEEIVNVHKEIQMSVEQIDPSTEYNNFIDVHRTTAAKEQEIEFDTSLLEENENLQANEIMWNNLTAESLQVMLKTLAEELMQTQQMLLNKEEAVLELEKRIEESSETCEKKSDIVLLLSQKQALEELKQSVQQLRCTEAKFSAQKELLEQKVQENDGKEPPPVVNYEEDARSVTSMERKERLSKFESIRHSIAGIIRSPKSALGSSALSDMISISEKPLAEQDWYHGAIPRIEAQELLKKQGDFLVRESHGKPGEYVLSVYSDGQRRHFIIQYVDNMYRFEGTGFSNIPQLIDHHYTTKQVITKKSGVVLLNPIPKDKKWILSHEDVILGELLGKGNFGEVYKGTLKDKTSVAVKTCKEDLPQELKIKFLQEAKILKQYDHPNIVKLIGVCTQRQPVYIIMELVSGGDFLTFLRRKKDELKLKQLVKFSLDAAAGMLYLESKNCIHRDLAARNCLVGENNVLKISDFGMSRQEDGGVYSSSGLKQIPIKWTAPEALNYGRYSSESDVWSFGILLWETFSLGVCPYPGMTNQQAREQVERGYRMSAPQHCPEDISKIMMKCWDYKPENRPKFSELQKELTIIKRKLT
Sequence of Insulin receptor (P06213 28-758 limits assumed): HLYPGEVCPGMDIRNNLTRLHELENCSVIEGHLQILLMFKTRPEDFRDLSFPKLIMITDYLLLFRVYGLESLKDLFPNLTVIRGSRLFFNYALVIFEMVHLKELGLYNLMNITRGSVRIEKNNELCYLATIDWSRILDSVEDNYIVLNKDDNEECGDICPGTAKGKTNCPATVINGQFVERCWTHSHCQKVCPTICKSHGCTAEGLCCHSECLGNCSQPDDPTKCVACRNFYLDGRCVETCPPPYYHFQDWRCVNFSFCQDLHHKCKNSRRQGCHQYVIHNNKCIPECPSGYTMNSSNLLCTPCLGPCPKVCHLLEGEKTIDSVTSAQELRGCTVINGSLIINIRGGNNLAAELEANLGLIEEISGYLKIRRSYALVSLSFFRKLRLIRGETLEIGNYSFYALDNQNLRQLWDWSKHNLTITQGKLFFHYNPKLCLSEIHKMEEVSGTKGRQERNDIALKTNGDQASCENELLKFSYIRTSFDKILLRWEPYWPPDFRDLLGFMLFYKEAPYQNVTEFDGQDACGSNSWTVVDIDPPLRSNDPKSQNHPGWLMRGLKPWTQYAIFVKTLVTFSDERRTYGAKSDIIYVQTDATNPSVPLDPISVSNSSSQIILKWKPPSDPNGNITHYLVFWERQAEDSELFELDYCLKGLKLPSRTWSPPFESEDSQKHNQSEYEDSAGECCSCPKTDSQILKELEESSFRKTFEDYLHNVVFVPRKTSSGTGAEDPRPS
Sequence of Insulin receptor (P06213 763-1382 limits assumed): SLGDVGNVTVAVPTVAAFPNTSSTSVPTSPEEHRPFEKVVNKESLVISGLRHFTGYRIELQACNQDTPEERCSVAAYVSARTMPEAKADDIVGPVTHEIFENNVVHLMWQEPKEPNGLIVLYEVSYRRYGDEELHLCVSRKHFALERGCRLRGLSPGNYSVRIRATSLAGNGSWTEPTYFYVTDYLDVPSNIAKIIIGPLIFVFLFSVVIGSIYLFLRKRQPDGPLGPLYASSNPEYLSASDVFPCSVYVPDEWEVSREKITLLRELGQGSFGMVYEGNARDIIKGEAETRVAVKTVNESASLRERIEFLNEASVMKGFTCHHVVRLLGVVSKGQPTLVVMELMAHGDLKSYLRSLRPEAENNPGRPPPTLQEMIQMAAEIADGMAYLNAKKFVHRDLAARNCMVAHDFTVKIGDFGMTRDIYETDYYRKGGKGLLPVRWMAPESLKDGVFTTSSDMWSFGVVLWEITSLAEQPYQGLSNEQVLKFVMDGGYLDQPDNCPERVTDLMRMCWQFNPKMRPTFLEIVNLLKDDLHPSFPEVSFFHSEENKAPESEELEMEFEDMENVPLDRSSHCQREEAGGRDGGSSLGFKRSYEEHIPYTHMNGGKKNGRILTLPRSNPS
Sequence of Cyclin-dependent kinase 5 (Q00535 whole entry, the tested form may be a part): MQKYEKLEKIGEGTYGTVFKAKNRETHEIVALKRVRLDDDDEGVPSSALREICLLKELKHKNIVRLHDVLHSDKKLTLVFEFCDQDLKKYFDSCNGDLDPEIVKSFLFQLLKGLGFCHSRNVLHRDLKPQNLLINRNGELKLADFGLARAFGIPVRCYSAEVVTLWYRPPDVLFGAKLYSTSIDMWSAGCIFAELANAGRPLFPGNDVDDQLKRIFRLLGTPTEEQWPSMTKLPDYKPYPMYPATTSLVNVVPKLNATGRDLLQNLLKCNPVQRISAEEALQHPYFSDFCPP
Sequence of Bone morphogenetic protein receptor type-1B (O00238 whole entry): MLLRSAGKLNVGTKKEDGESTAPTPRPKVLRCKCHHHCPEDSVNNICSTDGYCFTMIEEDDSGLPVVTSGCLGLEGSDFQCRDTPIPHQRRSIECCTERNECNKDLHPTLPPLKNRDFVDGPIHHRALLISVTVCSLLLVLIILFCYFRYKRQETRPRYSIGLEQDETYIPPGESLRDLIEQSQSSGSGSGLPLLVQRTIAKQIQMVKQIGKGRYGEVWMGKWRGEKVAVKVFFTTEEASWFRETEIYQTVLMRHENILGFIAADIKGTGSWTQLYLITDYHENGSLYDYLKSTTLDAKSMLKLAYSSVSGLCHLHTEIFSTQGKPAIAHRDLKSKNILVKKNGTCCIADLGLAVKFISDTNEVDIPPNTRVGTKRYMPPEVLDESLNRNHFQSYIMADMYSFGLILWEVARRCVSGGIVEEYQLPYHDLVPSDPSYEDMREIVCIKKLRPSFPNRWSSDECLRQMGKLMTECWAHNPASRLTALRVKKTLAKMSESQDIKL
Sequence of Proto-oncogene tyrosine-protein kinase receptor Ret (P07949 whole entry): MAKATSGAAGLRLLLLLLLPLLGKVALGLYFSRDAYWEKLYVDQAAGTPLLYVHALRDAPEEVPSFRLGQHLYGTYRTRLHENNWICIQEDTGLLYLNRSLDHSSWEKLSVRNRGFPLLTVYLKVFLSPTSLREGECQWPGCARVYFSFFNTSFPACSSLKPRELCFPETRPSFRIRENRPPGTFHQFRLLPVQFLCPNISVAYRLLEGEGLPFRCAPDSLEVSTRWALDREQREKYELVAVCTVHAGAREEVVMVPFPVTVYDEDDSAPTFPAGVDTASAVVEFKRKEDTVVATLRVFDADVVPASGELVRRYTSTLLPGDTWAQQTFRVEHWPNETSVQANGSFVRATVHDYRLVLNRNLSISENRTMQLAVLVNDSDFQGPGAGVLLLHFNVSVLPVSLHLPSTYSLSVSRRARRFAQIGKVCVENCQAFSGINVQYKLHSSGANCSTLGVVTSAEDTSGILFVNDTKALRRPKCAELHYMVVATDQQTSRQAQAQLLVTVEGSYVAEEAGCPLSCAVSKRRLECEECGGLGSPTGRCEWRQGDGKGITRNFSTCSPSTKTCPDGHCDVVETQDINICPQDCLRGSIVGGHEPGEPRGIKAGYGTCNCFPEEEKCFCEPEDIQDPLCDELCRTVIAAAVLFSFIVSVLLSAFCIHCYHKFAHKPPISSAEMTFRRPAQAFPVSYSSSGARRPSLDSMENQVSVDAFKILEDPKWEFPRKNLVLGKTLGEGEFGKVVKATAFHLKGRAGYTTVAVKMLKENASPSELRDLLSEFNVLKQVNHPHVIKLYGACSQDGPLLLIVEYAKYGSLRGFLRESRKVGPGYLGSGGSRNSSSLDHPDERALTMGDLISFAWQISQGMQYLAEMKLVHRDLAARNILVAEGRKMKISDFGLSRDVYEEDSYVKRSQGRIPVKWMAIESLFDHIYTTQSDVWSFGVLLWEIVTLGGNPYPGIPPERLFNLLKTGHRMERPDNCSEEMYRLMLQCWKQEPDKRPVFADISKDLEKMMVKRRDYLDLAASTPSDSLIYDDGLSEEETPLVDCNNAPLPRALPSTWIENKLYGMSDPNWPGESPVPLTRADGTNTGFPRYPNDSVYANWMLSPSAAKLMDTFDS

As to `C[C@H]1CNCCCN1S(=O)(=O)c1cccc2cncc(F)c12`, the Kd in experiment [1], in experiment [2], in experiment [3], in experiment [4], in experiment [5] and in experiment [6] was > 30 µM (inactive) each time. In addition, the Kd in experiment [7] is > 30 µM (inactive); in experiment [8], 0.416 µM (active); in experiment [9], > 30 µM (inactive); at Insulin receptor, > 30 µM (inactive); on ADP/ATP translocase 2, > 30 µM (inactive).

For `CC(=O)c1cnc2ccc(-c3cc(Cl)c(O)c(Cl)c3)nc2c1N[C@H]1CC[C@H](CN(C)C)CC1`, the Kd is 0.111 µM (active) in experiment [1]; > 30 µM (inactive) in [2]; 0.002 µM (active) in [3]; 1.09 µM (active) in experiment [4]; 0.006 µM in experiment [10]; 0.253 µM (active) in experiment [5]. The dissociation constant (Kd) in experiment [6] was 0.515 µM (active); in experiment [7], 0.028 µM (active); in [8] it was 0.244 µM (active); at Insulin receptor it was > 30 µM (inactive); on ADP/ATP translocase 2, > 30 µM (inactive).

On to `Cc1nc(NC(=O)N2CCC[C@H]2C(N)=O)sc1-c1ccnc(C(C)(C)C(F)(F)F)c1` [ALPELISIB], for which the Kd in [1], in experiment [2], in [3], in experiment [4], in experiment [5] and in experiment [6] was > 30 µM (inactive) in each case. In addition, the Kd (in [7]; in [8]; in experiment [9]; at Insulin receptor; at ADP/ATP translocase 2) was > 30 µM (inactive) throughout.

With `COc1cc([C@@H]2c3cc4c(cc3[C@H](O)[C@H]3COC(=O)[C@@H]23)OCO4)cc(OC)c1OC` [AXL-1717], the Kd in experiment [1], in experiment [2], in experiment [3], in [4], in experiment [5] and in [6] was > 30 µM (inactive) throughout. Further, the Kd (in experiment [7]; in experiment [8]; in experiment [9]; at Insulin receptor; at ADP/ATP translocase 2) was > 30 µM (inactive) each time.

Regarding `CC(C)(C)c1nc(-c2cccc(NS(=O)(=O)c3c(F)cccc3F)c2F)c(-c2ccnc(N)n2)s1` [DABRAFENIB], the Kd in experiment [2] was > 30 µM (inactive); in experiment [3], > 30 µM (inactive); in [4], > 30 µM (inactive); in [10], > 30 µM (inactive); in experiment [5], 1.07 µM (active); in experiment [6], > 30 µM (inactive). The Kd (in [8]; in experiment [9]; on Insulin receptor; at ADP/ATP translocase 2) was > 30 µM (inactive) in each case.

As for `Cn1cc(C2=C(c3cn(C4CCN(Cc5ccccn5)CC4)c4ccccc34)C(=O)NC2=O)c2ccccc21` [ENZASTAURIN], the Kd (in [2]; in experiment [4]; on ADP/ATP translocase 2) was > 30 µM (inactive) in each case.

As for `Cc1nc2cc(-n3ncc(C(=O)c4cc5ccccc5[nH]4)c3N)ccc2[nH]1` [FGFR INHIBITOR DEBIO 1347], the Kd in experiment [1], in experiment [2], in experiment [3], in experiment [4], in experiment [5] and in [6] was > 30 µM (inactive) each time. The Kd in experiment [7] was 0.783 µM (active); in [8], > 30 µM (inactive); in experiment [9], > 30 µM (inactive); on Insulin receptor it was > 30 µM (inactive); at ADP/ATP translocase 2, > 30 µM (inactive).

Turning to `CN(C[C@@H]1COCCO1)S(=O)(=O)Nc1ccc2ccc3ncc(-c4cnn(C)c4)cc3c(=O)c2c1` [MK-2461], the Kd in experiment [1] is > 30 µM (inactive); in experiment [2], > 30 µM (inactive); in [3], > 30 µM (inactive); in experiment [4], 3.42 µM (active); in [10] it was > 30 µM (inactive); in experiment [5] it was > 30 µM (inactive). Also, the Kd (in experiment [6]; in experiment [8]; in [9]; on Insulin receptor; on ADP/ATP translocase 2) was > 30 µM (inactive) throughout.

As for `Cc1[nH]c(/C=C2\C(=O)Nc3ccccc32)c(C)c1CCC(=O)O` [ORANTINIB], the Kd was 1.39 µM (active) in [1]; > 30 µM (inactive) in experiment [2]; > 30 µM (inactive) in experiment [3]; > 30 µM (inactive) in [4]; > 30 µM (inactive) in experiment [10]; > 30 µM (inactive) in experiment [6]. Besides, the Kd (in experiment [8]; at ADP/ATP translocase 2) was > 30 µM (inactive) in each case.

Consider `CCCCCCCCCCCCCCCCCCOP(=O)([O-])OC1CC[N+](C)(C)CC1` [PERIFOSINE], for which the Kd in [1], in experiment [2], in experiment [3], in [4], in [5] and in [6] was > 30 µM (inactive) in each case. The Kd (in [7]; in experiment [8]; in experiment [9]; on Insulin receptor; at ADP/ATP translocase 2) was > 30 µM (inactive) each time.

On to `N#CC[C@H](C1CCCC1)n1cc(-c2ncnc3[nH]ccc23)cn1` [RUXOLITINIB], for which the Kd (in [2]; in experiment [4]; on ADP/ATP translocase 2) was > 30 µM (inactive) each time.
